From patent US10577381B2, “Prodrugs of 2,4-pyrimidinediamine compounds and their uses” (Rigel Pharmaceuticals, Inc., priority 2005, dated 2020)
Values after ≈ are worked out from the molar mass of the structure shown. “Also recorded” adds a separate entry of the source. Like-named read-outs stand apart in the source and are kept apart here. Blank lines part the entries; values can stand above or below the compound they belong to.

Legend:
[1] = test system: collagen antibody-induced arthritis; test: Collagen antibody-induced arthritis (CAIA); assay type: in vivo, Balb/c mice
Source text: This passive model differs from the traditional rodent collagen-induced arthritis (CIA) in that disease symptoms appear quickly (developing within 24-48 hrs after an IV-injection of antibodies), arthritis is inducible in both CIA-susceptible and CIA-resistant mouse strains, and it allows evaluation of inflammation that is independent of antibody production. CAIA was induced in Balb/c mice by intravenous injection of Arthrogen-CIA® Monoclonal Antibody Blend (Chemicon International, Inc., Temecula, Calif.) via the tail vein, followed 2 days later by an intraperitoneal injection of LPS. […] The severity of the arthritis in hind-paws was scored daily (scale of 0-4 per paw, sum of scores for both hind paws).

[2] = Safety pharmacology: CNS (Irwin) study; assay type: in vivo; conditions: 50 mg/kg
Protocol: (§1) GLP toxicology studies included negative mutagenicity and clastogenicity studies (Ames, chromosomal aberration, and mouse micronucleus). […] The No Observed Adverse Effect Level (NOAEL) is 10-30 mg/kg/day for rats and 100 mg/kg/day for monkeys.

LTC4 = test: FcεRI-dependent production and release of LTC4; assay type: cell-based; conditions: Homo sapiens
CHMCs = test: Ionomycin-induced degranulation of CHMCs; assay type: cell-based, Human
[3] = rat, in vivo
[4] = monkey, in vivo
Protocol: as §1

[5] = test system: IC-mediated vascular edema (Arthus reaction); test: Reverse Passive Arthus (RPA) reaction; assay type: in vivo, rat
Source text: IC-mediated acute inflammatory tissue injury is implicated in a variety of human autoimmune diseases, including vasculitis, serum sickness, systemic lupus erythematosus, RA, and glomerulonephritis. The classical experimental model for IC-mediated tissue injury is the Reverse Passive Arthus (RPA) reaction. Intravenous injection of antigen (ovalbumin, OVA) following intradermal injection of antibodies specific to OVA (rabbit anti-OVA IgG) results in perivascular deposition of IC and a rapid inflammatory response characterized by edema, neutrophil infiltration, and hemorrhage at the injection sites (Szalai, et al., 2000, J. Immunol. 164(1):463-468).

[6] = test system: collagen-induced arthritis; test: Collagen-induced arthritis (CIA); assay type: in vivo, Syngeneic LOU rats
Source text: One of the experimental models for IC-mediated tissue injury is the CIA in rodents (Kleinau et al., 2000, J. Exp. Med. 191:1611-1616). Injection of type II collagen (CII) into rodents produces an immune reaction that characteristically involves inflammatory destruction of cartilage and bone of the distal joints with concomitant swelling of surrounding tissues. CIA in rats is commonly used to evaluate compounds that might be of potential use as drugs for treatment of rheumatoid arthritis and other chronic inflammatory conditions and is induced in susceptible strains of either mice or rats by injection of CII in incomplete Freund's adjuvant (IFA). Administration of this emulsion gives rise to polyarthritis, characterized by synovial hyperplasia, infiltration of mononuclear cells, pannus formation, and destruction of cartilage and bone. […] Syngeneic LOU rats were immunized on Day 0 with native chicken CII/IFA. Oral treatment began at the onset of arthritis symptoms (Day 10). […] Hind limbs were scored daily for clinical arthritis severity using a standardized method based on the degree of joint inflammation. High resolution digital radiographs of hind limbs were obtained at the conclusion of the study (Day 28). These limbs were also analyzed for histopathologic changes. IgG antibodies to native CII were measured in quadruplicate by ELISA. […] Brahn. 2004). Blinded composite histopathologic studies confirmed the regression of pannus and erosions: […] Antibodies to native CII were not decreased in Compound 1-treated rats.

[7] = test system: Cord-Blood Derived Primary Human Mast Cells (CHMC); test: FcεRI-dependent activation of CHMC, tryptase released upon degranulation; assay type: cell-based; conditions: Mast cell, activity of tryptase released upon degranulation
cytokines = test: FcεRI-dependent production and release of cytokines; assay type: cell-based; conditions: Homo sapiens; range over cytokines; read-out: EC50, FcεRI-dependent production and release of all cytokines tested
[8] = GLP mutagenicity and clastogenicity studies (Ames, chromosomal aberration, mouse micronucleus)
Protocol: as §1

[9] = Safety pharmacology: cardiovascular study; assay type: in vivo; conditions: 50 mg/kg
Protocol: as §1

[10] = Water solubility in aqueous buffer; assay type: physicochemical
[11] = Stability under acidic and neutral conditions at 37° C.; assay type: physicochemical; conditions: FIG. 8
[12] = Stability / hydrolysis in rat plasma; assay type: in vitro ADME; conditions: FIG. 10
Source text: (§2) Although phosphate-containing prodrugs suitable for oral administration are of interest, skilled artisans will appreciate that prodrugs including phosphate-containing progroups R^p can be administered via other routes of administration, as phosphatases are distributed throughout the body. […] Thus, the only requirement is that the particular phosphate-containing progroup R^P selected should be removable under the conditions of intended use.
The presence of Phosphatase activity in rat plasma was confirmed using p-nitrophenyl phosphate—a known substrate for phosphatase.

[13] = Conversion of prodrug to drug in microsome preparations; assay type: in vitro ADME, rat
Source text: as §2

[14] = Pharmacokinetics after IV and oral dosing in rats; assay type: in vivo, Sprague-Dawley rats
Protocol: Prodrug Compound 4 was tested for oral bioavailability. For the study, the prodrug was dissolved in various vehicles (e.g. PEG 400 solution and CMC suspension) for intravenous and oral dosing in the rats. […] Following administration of the prodrug and/or drug, plasma samples were obtained and extracted. The plasma concentrations of the prodrug and/or drug were determined by high performance liquid chromatography/tandem mass spectrometry (LC/MS/MS) methods. Pharmacokinetic analyses were performed based on the plasma concentration data. The pharmacokinetic parameters of interest include Clearance (CL), Volume of distribution at steady-state (Vss), terminal half-life (t1/2), and oral bioavailability (% F).
Referring to FIG. 4, PK profiles are shown for IV and PO administration in Spraque-Dawley rats. For IV administration, Compound 4 was dissolved in PEG-400 and administered at a dose of 1 mg/kg.
FIG. 5 summarizes the PK parameters for the study described in FIG. 4.
FIG. 11 illustrates the absorption of prodrug Compound 4 from different vehicles.

[15] = water solubility, aqueous buffer under physiological conditions, read-out: Solubility

EC50 (LTC4): 39 nM | CD45RA+ cells (immunophenotyping) [3]: significant increase | Histopathology [3]: mild reductions in marrow cellularity | effect on hematology, liver transaminase (mild), spleen and thymus size, bone marrow cellularity [3]: reversible effect | humoral immunity, anti-KLH antibody assessment [3]: no evidence for untoward effects | percentage of CD3+ cells (immunophenotyping) [3]: significant decrease | effect on hematology and bone marrow cellularity [4]: reversible effect | EC50 [7]: ~43 nM | EC50 (cytokines): 158 to 462 nM | solubility ([10]; aqueous buffer, phosphate buffer at pH=7.5, data not shown, read-out: measured solubility): < 1 µg/mL | solubility [10, 15]: 1 to 2 µg/mL (≈ 2.13 to 4.25 µM)
SMILES: COc1cc(Nc2ncc(F)c(Nc3ccc4c(n3)NC(=O)C(C)(C)O4)n2)cc(OC)c1OC [Compound 1, N4-(2,2-dimethyl-3-oxo-4H-5-pyrido[1,4]oxazin-6-yl)-5-fluoro-N2-(3,4,5-trimethoxyphenyl)-2,4-pyrimidinediamine]
arthritis severity, disease incidence, time of onset ([1]; lower dose levels, differences not significant (p>0.05)): trend toward reduced arthritis severity, disease incidence, and time of onset | clinical arthritis vs vehicle ([1]; oral, b.i.d., p<0.05): significantly reduced clinical arthritis | behavioral effect [2]: slight effect on a few behavioral parameters | inhibition of ionomycin-induced degranulation (CHMCs): does not inhibit | inhibition at 10 mg/kg ([5]; Rattus norvegicus, 10 mg/kg oral, compared with vehicle control, read-out: inhibition of extravascular leakage of Evans blue dye (OD610) from tissue biopsies): 80% | cutaneous RPA reaction and inflammatory edema ([5]; single oral treatment one hour prior to antigen/antibody administration): reduced the cutaneous RPA reaction and inflammatory edema in a dose-dependent manner | arthritis severity ([6]; 30 mg/kg q.d. p.o., evident within 7 days after initiation of therapy, p<0.05): significant reduction | Mean modified Mankin scores (histopathology, pannus and erosions) ([6]; 30 mg/kg, p<0.001 vs vehicle): 3.7±0.9 | clinical score ([6]; Day 28, 30 mg/kg q.d. p.o., p<0.001 vs vehicle): 2.54±0.98 | joint damage, blinded radiographs ([6]; Day 28, p<0.02 vs vehicle): 1.63±0.67 | mutagenicity and clastogenicity [8]: negative | cardiovascular effect [9]: slight reduction in heart rate and increase in RR interval

stability of prodrug [11]: stable | conversion of prodrug Compound 4 to drug Compound 1 ([13]; microsomal preparations obtained from Xenotech, FIG. 9): failed to convert | plasma levels of drug metabolite Compound 1 after dosing prodrug ([14]; Compound 4 given orally in PEG-400): high levels | AUC/dose of drug Compound 1 exposure (absorption), prodrug vs drug ([14]; oral, Compound 1 2.5 mg/kg in PEG-400 vs Compound 4 4 mg/kg in PEG-400, FIG. 6): nearly identical | Solubility of prodrug relative to active drug Compound 1 ([10]; same conditions, Compound 4 vs Compound 1): approximately 2000 times | solubility [10, 15]: > 5000 µg/mL
SMILES: COc1cc(Nc2ncc(F)c(Nc3ccc4c(n3)N(COP(=O)(O)O)C(=O)C(C)(C)O4)n2)cc(OC)c1OC [Compound 4, N4-(2,2-dimethyl-4-[(dihydrogenphosphonoxy)methyl]-3-oxo-5-pyrido[1,4]oxazin-6-yl)-5-fluoro-N2-(3,4,5-trimethoxyphenyl)-2,4-pyrimidinediamine]
stability in rat plasma, hydrolysis to drug Compound 1 [12]: metabolize to the active drug Compound 1; also recorded: unstable | conversion of prodrug Compound 4 to drug Compound 1 ([13]; rat intestinal and hepatic microsomes from a different source (data not shown)): metabolize to the active drug Compound 1; also recorded: conversion of Compound 4 to Compound 1 was observed | disappearance / clearance of prodrug from plasma ([14]; IV, 1 mg/kg in PEG-400, 1 mg/kg): Rapid disappearance; also recorded: rapidly cleared | systemic presence of prodrug after oral dosing ([14]; given orally in PEG-400): no prodrug Compound 4 was present systemically | absorption from different vehicles ([14]; oral, rats, PEG-400 and carboxymethylcellulose solutions, powder in hard gelatin capsules, FIG. 11): absorbed equally well; also recorded: not dependent on formulation
